Results: PubChem BioAssay (NCI)
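Compound exposure: 48 hours, 5 concentrations, 96-well plates. GI50: concentration for 50% inhibition of growth. TGI: concentration producing complete growth inhibition.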

How the values were obtained:
Assay in all cases: growth of human tumour cells (NCI), 48 h
786-0 renal = system: 786-0 renal
A498 renal = system: A498 renal
A549 NSCLC = system: A549 NSCLC
ACHN renal = system: ACHN renal
BT-549 breast = system: BT-549 breast
CAKI-1 renal = system: CAKI-1 renal
CCRF-CEM leukemia = system: CCRF-CEM leukemia
COLO 205 colon = system: COLO 205 colon
DU-145 prostate = system: DU-145 prostate
EKVX NSCLC = system: EKVX NSCLC
HCC-2998 colon = system: HCC-2998 colon
HCT-116 colon = system: HCT-116 colon
HCT-15 colon = system: HCT-15 colon
HL-60(TB) leukemia = system: HL-60(TB) leukemia
HOP-62 NSCLC = system: HOP-62 NSCLC
HOP-92 NSCLC = system: HOP-92 NSCLC
HS 578T breast = system: HS 578T breast
HT29 colon = system: HT29 colon
IGROV1 ovarian = system: IGROV1 ovarian
K-562 leukemia = system: K-562 leukemia
KM12 colon = system: KM12 colon
LOX IMVI melanoma = system: LOX IMVI melanoma
M14 melanoma = system: M14 melanoma
MALME-3M melanoma = system: MALME-3M melanoma
MCF7 breast = system: MCF7 breast
MDA-MB-231 breast = system: MDA-MB-231 breast
MDA-MB-435 = system: MDA-MB-435
MOLT-4 leukemia = system: MOLT-4 leukemia

Work on `CC12CC[C@@H]3c4cc5c(cc4CC[C@H]3[C@@H]1CCC2O)oc1cc(F)ccc15` (stereo not given in full) yielded a GI50 (786-0 renal) of 16.1 µM, a TGI (786-0 renal) of 37.4 µM and a TGI (A498 renal) of 23.6 µM. The GI50 (A549 NSCLC) was 33.1 µM, the TGI (A549 NSCLC) was > 100 µM and the GI50 (ACHN renal) was 15.8 µM. For the same molecule, the TGI (ACHN renal) was 35.4 µM, the GI50 (BT-549 breast) was 17.7 µM and the TGI (BT-549 breast) was 39.1 µM. It also gave a GI50 (CAKI-1 renal) of 16.1 µM, a TGI (CAKI-1 renal) of 37.4 µM and a GI50 (CCRF-CEM leukemia) of 27.9 µM. The TGI (CCRF-CEM leukemia) was > 100 µM, the GI50 (COLO 205 colon) was 17.1 µM and the TGI (COLO 205 colon) was 36.2 µM. For the same molecule, the GI50 (DU-145 prostate) was 17.8 µM, the TGI (DU-145 prostate) was 31.6 µM and the GI50 (EKVX NSCLC) was 15.5 µM. The TGI (EKVX NSCLC) was 49 µM, the GI50 (HCC-2998 colon) was 23.2 µM and the TGI (HCC-2998 colon) was > 100 µM. For the same molecule, the GI50 (HCT-116 colon) was 13.9 µM, the TGI (HCT-116 colon) was 30.6 µM and the GI50 (HCT-15 colon) was 10.8 µM. It also gave a TGI (HCT-15 colon) of 31.8 µM, a GI50 (HL-60(TB) leukemia) of 7.74 µM and a TGI (HL-60(TB) leukemia) of 39.2 µM. It also gave a GI50 (HOP-62 NSCLC) of 18.7 µM, a TGI (HOP-62 NSCLC) of 45.4 µM and a GI50 (HOP-92 NSCLC) of 21.1 µM. For the same molecule, the TGI (HOP-92 NSCLC) was 63 µM, the GI50 (HS 578T breast) was 26.3 µM and the TGI (HS 578T breast) was 49.6 µM. For the same molecule, the GI50 (HT29 colon) was 12.5 µM, the TGI (HT29 colon) was 25 µM and the GI50 (IGROV1 ovarian) was 16.7 µM. It also gave a TGI (IGROV1 ovarian) of 36.9 µM, a GI50 (K-562 leukemia) of 8.68 µM and a TGI (K-562 leukemia) of 47.7 µM. It also gave a GI50 (KM12 colon) of 17.8 µM, a TGI (KM12 colon) of 45.5 µM and a GI50 (LOX IMVI melanoma) of 12.1 µM. For the same molecule, the TGI (LOX IMVI melanoma) was 24.5 µM, the GI50 (M14 melanoma) was 20.8 µM and the TGI (M14 melanoma) was 74.1 µM. For the same molecule, the GI50 (MALME-3M melanoma) was 20.3 µM, the TGI (MALME-3M melanoma) was 49.8 µM and the GI50 (MCF7 breast) was 31.7 µM. It also gave a TGI (MCF7 breast) of 82.7 µM, a GI50 (MDA-MB-231 breast) of 14.1 µM and a TGI (MDA-MB-231 breast) of 34 µM. For the same molecule, the GI50 (MDA-MB-435) was 39.5 µM, the TGI (MDA-MB-435) was > 100 µM and the GI50 (MOLT-4 leukemia) was 16.2 µM. For the same molecule, the TGI (MOLT-4 leukemia) was 40.6 µM.
